The structures appear in SMILES notation.

What is called melting point is the temperature of the solid-liquid transition. Take `c1cnc2[nH]cc(-c3csc(-c4c[nH]c5ncccc45)n3)c2c1` [Compound 1a, 3,3′-(1,3-Thiazole-2,4-diyl)bis(1H-pyrrolo[2,3-b]pyridine)]: the melting point was in the range of 346 to 347 °C.

Regarding `Brc1cnc2[nH]cc(-c3csc(-c4c[nH]c5ncccc45)n3)c2c1` [Compound 1b, 5-Bromo-3-[2-(1H-pyrrolo[2,3-b]pyridin-3-yl)-1,3-thiazol-4-yl)-1H-pyrrolo[2,3-b]pyridine], the melting point fell in the range of 390 to 391 °C. For `Fc1cnc2[nH]cc(-c3csc(-c4c[nH]c5ncccc45)n3)c2c1` [Compound 1c, 5-Fluoro-3-[2-(1H-pyrrolo[2,3-b]pyridin-3-yl)-1,3-thiazol-4-yl]-1H-pyrrolo[2,3-b]pyridine], the melting point fell in the range of 373 to 374 °C. Turning to `Cn1cc(-c2nc(-c3c[nH]c4ncccc34)cs2)c2cccnc21` [Compound 1d, 1-Methyl-3-[4-(1H-pyrrolo[2,3-b]pyridin-3-yl)-1,3-thiazol-2-yl]-1H-pyrrolo[2,3-b]pyridine], the melting point is 278 to 279 °C. Regarding `Cn1cc(-c2nc(-c3c[nH]c4ncc(Br)cc34)cs2)c2cccnc21` [Compound 1e, 3-[4-(5-Bromo-1H-pyrrolo[2,3-b]pyridin-3-yl)-1,3-thiazol-2-yl]-1-methyl-1H-pyrrolo[2,3-b]pyridine], the melting point was determined as 311 °C. For `Cn1cc(-c2nc(-c3c[nH]c4ncc(F)cc34)cs2)c2cccnc21` [Compound 1f, 3-[4-(5-Fluoro-1H-pyrrolo[2,3-b]pyridin-3-yl)-1,3-thiazol-2-yl]-1-methyl-1H-pyrrolo[2,3-b]pyridine] the value was 316 °C.

Regarding `Cn1cc(-c2csc(-c3cn(C)c4ncccc34)n2)c2cccnc21` [Compound 1g, 3,3′-(1,3-Thiazole-2,4-diyl)bis(1-methyl-1H-pyrrolo[2,3-b]pyridine)], the melting point lay within 310 to 311 °C.

`Cn1cc(-c2csc(-c3cn(C)c4ncccc34)n2)c2cc(Br)cnc21` [Compound 1h, 5-Bromo-1-methyl-3-[2-(1-methyl-1H-pyrrolo[2,3-b]pyridin-3-yl)-1,3-thiazol-4-yl]-1H pyrrolo[2,3-b]pyridine] came in with a melting point of 308 °C. The molecule `Cn1cc(-c2csc(-c3cn(C)c4ncccc34)n2)c2cc(F)cnc21` [Compound 1i, 5-Fluoro-1-methyl-3-[2-(1-methyl-1H-pyrrolo[2,3-b]pyridin-3-yl)-1,3-thiazol-4-yl]-1H-pyrrolo[2,3-b]pyridine] returned a melting point of 301 to 302 °C. Then `Cn1cc(C2(c3c[nH]c4ncccc34)CSC=N2)c2cccnc21` (stereo not shown) [Compound 1j, 1-Methyl-3-[4-(1H-pyrrolo[2,3-b]pyridin-3-yl)-1,3-thiazol-4-yl]-1H-pyrrolo[2,3-b]pyridine], with 303 to 304 °C; and `Cn1cc(-c2csc(-c3c[nH]c4ncccc34)n2)c2cc(F)cnc21` [Compound 1l, 5-Fluoro-1-methyl-3-[2-(1H-pyrrolo[2,3-b]pyridin-3-yl)-1,3-thiazol-4-yl]-1H-pyrrolo[2,3-b]pyridine], with 295 to 296 °C; and `Cn1cc(-c2nc(-c3c[nH]c4c(Cl)nccc34)cs2)c2ccccc21` [Compound 2a, 7-Chloro-3-[2-(1-methyl-1H-indol-3-yl)-1,3-thiazol-4-yl]-1H-pyrrolo[2,3-c]pyridine], with 326 to 327 °C. Then `COc1ccc2c(c1)c(-c1nc(-c3c[nH]c4c(Cl)nccc34)cs1)cn2C` [Compound 2b, 7-Chloro-3-[2-(5-methoxy-1-methyl-1H-indol-3-yl)-1,3-thiazol-4-yl]-1H-pyrrolo[2,3-c]pyridine], with 216 to 217 °C. Regarding `Cn1cc(-c2nc(-c3c[nH]c4c(Cl)nccc34)cs2)c2cc(Br)ccc21` [Compound 2c, 3-[2-(5-Bromo-1-methyl-1H-indol-3-yl)-1,3-thiazol-4-yl]-7-chloro-1H-pyrrolo[2,3-c]pyridine], the melting point is 374 to 375 °C. For `Cn1cc(-c2nc(-c3c[nH]c4c(Cl)nccc34)cs2)c2cc(F)ccc21` [Compound 2d, 7-Chloro-3-[2-(5-fluoro-1-methyl-1H-indol-3-yl)-1,3-thiazol-4-yl]-1H-pyrrolo[2,3-c]pyridine] the value was 337 to 338 °C; for `Cn1cc(-c2nc(-c3cn(C)c4c(Cl)nccc34)cs2)c2ccccc21` [Compound 2e, 7-Chloro-1-methyl-3-[2-(1-methyl-1H-indol-3-yl)-1,3-thiazol-4-yl]-1H-pyrrolo[2,3-c]pyridine], 265 to 266 °C; for `COc1ccc2c(c1)c(-c1nc(-c3cn(C)c4c(Cl)nccc34)cs1)cn2C` [Compound 2f, 7-Chloro-3-[2-(5-methoxy-1-methyl-1H-indol-3-yl)-1,3-thiazol-4-yl]-1-methyl-1H-pyrrolo[2,3-c]pyridine], 231 to 232 °C.

Take `Cn1cc(-c2nc(-c3cn(C)c4c(Cl)nccc34)cs2)c2cc(Br)ccc21` [Compound 2g, 3-[2-(5-Bromo-1-methyl-1H-indol-3-yl)-1,3-thiazol-4-yl]-7-chloro-1-methyl-1H-pyrrolo[2,3-c]pyridine]: the melting point is 249 to 250 °C. `Cn1cc(-c2nc(-c3cn(C)c4c(Cl)nccc34)cs2)c2cc(F)ccc21` [Compound 2h, 7-Chloro-3-[2-(5-fluoro-1-methyl-1H-indol-3-yl)-1,3-thiazol-4-yl]-1-methyl-1H-pyrrolo[2,3-c]pyridine]: the melting point was 284 to 285 °C. For `Cn1cc(-c2csc(-c3c[nH]c4ccc(F)cc34)n2)c2ccnc(Cl)c21` [Compound 2i, 7-Chloro-3-[2-(5-fluoro-1H-indol-3-yl)-1,3-thiazol-4-yl]-1-methyl-1H-pyrrolo[2,3-c]pyridine] the value was 284 to 285 °C; for `Fc1ccc2[nH]cc(-c3nc(-c4c[nH]c5c(Cl)nccc45)cs3)c2c1` [Compound 2j, 7-Chloro-3-[2-(5-fluoro-1H-indol-3-yl)-1,3-thiazol-4-yl]-1H-pyrrolo[2,3-c]pyridine], 281 to 282 °C; for `CC(C)(C)OC(=O)n1cc(-c2nc(-c3c[nH]c4c(Cl)nccc34)cs2)c2ccccc21` [Compound 3a, Tert-Butyl 3-[4-(7-Chloro-1H-pyrrolo[2,3-c]pyridin-3-yl)-1,3-thiazol-2-yl]-1H-indole-1-carboxylate], 225 to 226 °C. Then `COc1ccc2c(c1)c(-c1nc(-c3c[nH]c4c(Cl)nccc34)cs1)cn2C(=O)OC(C)(C)C` [Compound 3b, Tert-Butyl 3-[4-(7-chloro-1H-pyrrolo[2,3-c]pyridin-3-yl)-1,3-thiazol-2-yl]-5-methoxy-1H-indole-1-carboxylate], with 312 to 313 °C; and `CC(C)(C)OC(=O)n1cc(-c2nc(-c3c[nH]c4c(Cl)nccc34)cs2)c2cc(Br)ccc21` [Compound 3c, Tert-Butyl 5-bromo-3-[4-(7-chloro-1H-pyrrolo[2,3-c]pyridin-3-yl)-1,3-thiazol-2-yl]-1H-indole-1-carboxylate], with 241 to 242 °C; and `Cn1cc(-c2csc(-c3cn(C(=O)OC(C)(C)C)c4ccccc34)n2)c2ccnc(Cl)c21` [Compound 3d, Tert-Butyl 3-[4-(7-chloro-1-methyl-1H-pyrrolo[2,3-c]pyridin-3-yl)-1,3-thiazol-2-yl]-1H-indole-1-carboxylate], with 279 to 280 °C. Then `Cn1cc(-c2csc(-c3cn(C(=O)OC(C)(C)C)c4ccc(Br)cc34)n2)c2ccnc(Cl)c21` [Compound 3f, Tert-Butyl 5-bromo-3-[4-(7-chloro-1-methyl-1H-pyrrolo[2,3-c]pyridin-3-yl)-1,3-thiazol-2-yl]-1H-indole-1-carboxylate], with 257 °C; and `Clc1nccc2c(-c3csc(-c4c[nH]c5ccccc45)n3)c[nH]c12` [Compound 4a, 7-Chloro-3-[2-(1H-indol-3-yl)-1,3-thiazol-4-yl]-1H-pyrrolo[2,3-c]pyridine], with 271 to 272 °C.

Molecule `COc1ccc2[nH]cc(-c3nc(-c4c[nH]c5c(Cl)nccc45)cs3)c2c1` [Compound 4b, 7-Chloro-3-[2-(5-methoxy-1H-indol-3-yl)-1,3-thiazol-4-yl]-1H-pyrrolo[2,3-c]pyridine] showed a melting point of 223 to 224 °C. For `Cn1cc(-c2csc(-c3c[nH]c4ccccc34)n2)c2ccnc(Cl)c21` [Compound 4d, 7-Chloro-3-[2-(1H-indol-3-yl)-1,3-thiazol-4-yl]-1-methyl-1H-pyrrolo[2,3-c]pyridine], the melting point was 210 to 211 °C. `COc1ccc2[nH]cc(-c3nc(-c4cn(C)c5c(Cl)nccc45)cs3)c2c1` [Compound 4e, 7-Chloro-3-[2-(5-methoxy-1H-indol-3-yl)-1,3-thiazol-4-yl]-1-methyl-1H-pyrrolo[2,3-c]pyridine] had a melting point of 184 to 185 °C. For `Cn1cc(-c2csc(-c3c[nH]c4ccc(Br)cc34)n2)c2ccnc(Cl)c21` [Compound 4f, 3-[2-(5-Bromo-1H-indol-3-yl)-1,3-thiazol-4-yl]-7-chloro-1-methyl-1H-pyrrolo[2,3-c]pyridine] the value was 273 to 274 °C.
